Assay [1] relates to MyD88+ EOC cells. Nature of the assay: Cytokine microarray (Fast Quant), MyD88+ EOC cells. Type of assay: cell-based, human. To be noted: 48 h; LPS 10 μg/ml or paclitaxel 20 μM. The protocol: (§1) A panel of 10 cytokines, pro and anti-inflammatory, was simultaneously evaluated using the Fast Quant Human II kit (Whatman/Schleicher & Schuell) according to the manufacturer instructions. The signal was detected using the Genepix 4000 microarray reader and the results were analyzed using the Genepix 3.0 software (Whatman/Schleicher & Schuell).
(§2) To further characterize the effect of paclitaxel and LPS on the secretion of several cytokines and chemokines in MyD88^+ and MyD88^− EOC cells, Applicants used a high throughput microarray system (Whatman/Schleicher & Schull) to measure the levels of IL-6, IL-4, IL-8, IL-12, RANTES, and IFN-γ. Cytokine secretion was measured in the supernatants of EOC cells following 48 h incubation with either LPS (10 μg/ml) or paclitaxel (20 μM).

Assay [2] deals with MyD88- EOC cells. Nature of the assay: Cytokine ELISA (GRO-α, MCP-1, IL-6), MyD88- EOC cells. Type of assay: cell-based, human. To be noted: increasing concentrations of paclitaxel, 24 h, 48 h, 72 h. The protocol: (§3) The concentrations of the IL-6, GRO-α, MCP-1 were evaluated by ELISA, according to the manufacturer's instructions. (R&D Systems, Minneapolis, Minn.)
(§4) EOC cell lines were treated for 48 h with 10 μg/ml LPS and the levels of GRO-α, MCP-1, and IL-6 were determined. […] Unstimulated MyD88^+ EOC cells constitutively express all the cytokines tested. […] In contrast, unstimulated MyD88^− EOC cells secreted undetectable or low levels of these pro-inflammatory cytokines, which were not affected by TLR-4 ligation with LPS.
(§5) MyD88^+ and MyD88^− EOC cells were treated with increasing concentrations of paclitaxel for 24 h, 48 h, and 72 h and levels of IL-6 secretion were determined by ELISA.
On the technique in general: In an ELISA, binding on a coated surface is turned into a signal by an enzyme label.

For assay [3], the system named is MyD88+ EOC cells. Nature of the assay: Cytokine ELISA (GRO-α, MCP-1, IL-6), MyD88+ EOC cells. The assay is classed as cell-based, human. To be noted: increasing concentrations of paclitaxel, 24 h, 48 h, 72 h; dose- and time-dependent, p<0.01. On the procedure: as §3, §4, §5
Another assay deals with MyD88- EOC cell lines. Nature of the assay: CASPASE GLO 3/7 apoptosis assay, MyD88- EOC cell lines. To be noted: 2 μM paclitaxel, 24 h. The assay is classed as cell-based, human. The protocol: (§6) Ten μg of protein in a 50 μl total volume was mixed with 50 μl of equilibrated reagents of a caspase assay kit, i.e., the CASPASE GLO™ 3/7 Assay (Promega). After incubating at room temperature for 1 h, luminescence was measured using TD 20/20 Luminometer (Turner Designs, Sunnyvale, Calif.). Blank values were subtracted and fold-increase in activity was calculated based on activity measured from untreated cells. Each sample was measured in triplicate.
(§7) Paclitaxel has been reported to be a potential ligand to TLR-4 (23). […] EOC cells were treated with 2 μM paclitaxel for 24 h and apoptosis was determined by measuring the activity of caspases-3 and -7 using a caspase assay kit CASPASE GLO™ 3/7 Assay.

Assay [4] relates to MyD88+ EOC cells. The experiment in a line: CELLTITER96 cell viability / proliferation assay, MyD88+ EOC cells. To be noted: EOC cells that express MyD88. The assay is classed as cell-based, human. The protocol:
Cell viability was evaluated using a cell proliferation assay, i.e., the CELLTITER96® Aqueous One Solution Cell Proliferation Assay (Promega, Madison, Wis.) according to the manufacturer's instructions. The values from the treated cells were compared with the values generated from the untreated cells and reported as percent viability. Each experiment was performed at least three times.
Once the expression of TLR-4 in EOC samples was established, Applicants evaluated the biological function of this receptor and also evaluated the significance of MyD88 status. EOC cell lines expressing MyD88 (MyD88^+) and those shown to lack MyD88 (MyD88^−) were treated with increasing concentrations of LPS (one of the main ligands for TLR-4) for 24 h and 48 h and cell viability was determined using a cell proliferation assay, i.e., the CELLTITER96® AQueous One Solution Cell Proliferation Assay. […] Thus, LPS induced a time- and dose-dependent increase in cell proliferation in cells expressing MyD88, but not in MyD88− EOC cells. LPS had no effect on viability of OSE cell, which are also negative for MyD88 expression.

Another assay has as its system A2780 EOC cells. The experiment in a line: Caspase-3/7 activity in A2780 cells, wt or MyD88 transfected, carboplatin versus paclitaxel. Type of assay: cell-based, human. To be noted: 100 μg/ml carboplatin or 2 μM paclitaxel, 48 hours; for caspase-3/7 activity: wildtype A2780. The protocol:
as §6
Transfection was performed using a plasmid containing the full-length cDNA (SEQ ID NO:3) of human MyD88 (pUNO-hMyD88, Invivogen), which encodes the amino acid sequence of SEQ ID NO:4. CP70 and A2780 cells were grown in […] surface tissue culture flasks until they reached 50% confluence. 12 μl of the Fugene 6 Transfection reagent was added into 4 ml of serum-free media for each transfection. After 5 minutes of incubation at room temperature, 1 μg of the plasmid pUNO-hMyD88 was added to the serum-free media containing Fugene 6 Transfection Reagent, and the mixtures were incubated at room temperature for another 15 minutes. The growth media in each flask was discarded, and the corresponding Fugene 6-plasmid-serum-free-media mixture was added and the flasks were incubated overnight at 37° C. 5% CO2. The transfection media was replaced with fresh growth media the second day and the cells were allowed to recover for 24 hours post transfection before treatments.
Applicants also determined whether the expression of MyD88 confers resistance that is specific to paclitaxel. Wildtype (wt) A2780 EOC cells (carboplatin sensitive) and A2780 EOC cells transfected with MyD88 were treated with 100 μg/ml carboplatin or 2 μM paclitaxel for 48 hours. Apoptosis was determined by measuring caspase-3/7 activity.

A further assay concerns normal OSE cells. The experiment in a line: CASPASE GLO 3/7 apoptosis assay, normal OSE cells. Type of assay: cell-based. To be noted: 2 μM paclitaxel, 24 h.
In the next assay the test system is MyD88+ cells. Nature of the assay: Western blot of XIAP, pAkt and total Akt in MyD88+ cells. The assay is classed as cell-based, human. An excerpt:
Twenty μg protein were denatured in sample buffer (2.5% SDS, 10% glycerol, 5% β-mercapto-ethanol, 0.15 M Tris (pH=6.8) and 0.01% bromophenol blue) and subjected to 12% SDS-PAGE as previously described (17). Antibodies used: rabbit anti-TLR-4 (Santa Cruz Biotechnology, Santa Cruz, Calif., 1:1,000), rabbit anti-MyD88 (eBiosciences, San Diego, Calif., 1:1,000), mouse anti-NF-κB (Santa Cruz Biotechnology, 1:1,000), mouse anti-DNA topoisomerase 1 (BD Biosciences, San Jose, Calif., 1:500) and, rabbit anti-actin (Sigma Chemical Co., 1:10,000). Proteins were visualized using enhanced chemiluminescence (Pierce Biotechnology).
TLR-4 ligation through NF-κB and inflammatory molecules promotes cell survival by the induction of the expression of anti-apoptotic proteins (24, 25). The expression of X-linked inhibitor of apoptosis (XIAP), a major inhibitor of caspase-3 and 9, and the expression of Akt has been associated with tumor growth and chemoresistance in ovarian cancer cells (26-28). Therefore, Applicants evaluated the expression of XIAP and phosphorylated Akt (pAkt) following paclitaxel treatment in MyD88^+ cells. […] Similarly, XIAP levels increased 2 h post-treatment. In contrast, no change on the levels of total Akt was observed.

The next assay deals with A2780 and CP70 EOC cells. Nature of the assay: Caspase-3/7 activity in A2780 and CP70 cells, wt or transfected with pUNO-hMyD88. Type of assay: cell-based, human. To be noted: 48 h. The protocol: as §6
Transfection was performed using a plasmid containing the full-length cDNA (SEQ ID NO:3) of human MyD88 (pUNO-hMyD88, Invivogen), which encodes the amino acid sequence of SEQ ID NO:4. CP70 and A2780 cells were grown in […] surface tissue culture flasks until they reached 50% confluence. 12 μl of the Fugene 6 Transfection reagent was added into 4 ml of serum-free media for each transfection. […]
Because Applicants observed a positive correlation between MyD88 expression and resistance to paclitaxel-induced apoptosis, their next objective was to determine whether the induction of MyD88 expression in EOC might confer resistance to paclitaxel. […] After 24 h of transfection, the cells were either left untreated or treated with 2 μM paclitaxel for 48 h and caspase-3/7 activity was determined.

Assay [5] has as its system MyD88+ EOC cells. The experiment in a line: CASPASE GLO 3/7 apoptosis assay, MyD88+ EOC cells. The assay is classed as cell-based, human. To be noted: 2 μM paclitaxel, 24 h. The protocol:
as §6, §7

In the next assay the test system is murine macrophages. To be noted: cited from earlier work.
For assay [6], the system named is MyD88- EOC cells. Nature of the assay: Cytokine microarray (Fast Quant), MyD88- EOC cells. The assay is classed as cell-based, human. To be noted: 48 h; LPS 10 μg/ml or paclitaxel 20 μM. The protocol:
as §1, §2

The test system of the next assay is MyD88+ R182 EOC cells. Nature of the assay: IL-6 secretion in R182 EOC cells with and without MyD88 RNAi. Type of assay: cell-based, human. The protocol: EOC cells were transiently transfected with a GFP-expressing plasmid containing silencing RNA (siRNA) directed against MyD88 (psiRNA-hMyD88, Invivogen, San Diego, Calif.). Briefly, 1.5×10^5 cells were seeded in 60 mm dishes and cultured overnight until 40-60% confluent. Cells were then transfected for 18 h with 2 μg of DNA using Fugene 6 Transfection reagent (Roche Applied Science, Indianapolis, Ind.). Ratio of Fugene to DNA was 3:1. Following transfection, cells were allowed to recover in growth media for 24 h prior to treatment.
In order to confirm that in MyD88^+ EOC cells, the ligation of TLR-4 by either LPS or paclitaxel induces the production of cytokines, Applicants inhibited its expression in MyD88^+ R182 EOC cells using RNA interference technology. […] These findings confirmed that the cytokine response in EOC cells following LPS and paclitaxel treatment involves signaling through MyD88.

Turning to `CC(=O)O[C@H]1C(=O)[C@@]2(C)[C@H]([C@H](OC(=O)c3ccccc3)[C@]3(O)C[C@H](OC(=O)[C@H](O)[C@@H](NC(=O)c4ccccc4)c4ccccc4)C(C)=C1C3(C)C)[C@]1(OC(C)=O)CO[C@@H]1C[C@@H]2O` [paclitaxel], the “secretion of IL-4, IL-12 and IFN-γ” value in the assay with MyD88+ EOC cells [1] and in the assay with MyD88- EOC cells [6] was “neither MyD88^+ nor MyD88^− EOC cells secreted detectable levels” each time. Further, in the assay on MyD88+ EOC cells [1], the “secretion of IL-6, IL-8 and RANTES” value is given as “increased secretion”. Besides, in the assay with MyD88- EOC cells [2], the IL-6 levels result is listed as “did not affect”. Also, the IL-6 production result was “significant increase” in the assay with MyD88+ EOC cells [3] and “high levels of IL-6” in the assay on MyD88+ R182 EOC cells (wild type R182 cells, LPS 10 μg/ml or paclitaxel 2 μM). The caspase-3/7 activity entry in the assay on MyD88- EOC cell lines is recorded as “significant increase”; with A2780 EOC cells it was “significant increase”; with A2780 and CP70 EOC cells (cells transfected with pUNO-hMyD88, 2 μM paclitaxel), “no changes”; with A2780 and CP70 EOC cells (wt cells, 2 μM paclitaxel) it was “significant increase”; in the assay on MyD88+ EOC cells [5], “no significant change”. Also, the “proliferation in culture upon TLR-4 ligation” value in the assay with MyD88+ EOC cells [4] is recorded as “proliferate in culture”. Further, the caspase activity result with normal OSE cells is reported as “Significant increase”. The XIAP levels entry with MyD88+ cells (2 h post-treatment) is recorded as “increased”. Besides, in the assay on MyD88+ cells (4 h after treatment), the “phosphorylated Akt (pAkt)” value is reported as “significant increase”. Also, the “levels of total Akt” value in the assay on MyD88+ cells (after paclitaxel treatment) was “no change”. Besides, the “secretion of inflammatory cytokines, including TNFα, IL-6 and IL-8” value with murine macrophages (TLR-4 and MyD88 dependent) is reported as “induces the secretion of inflammatory cytokines”. For the same compound, the macrophage activation result in the assay on murine macrophages (studies by Ding et al) is reported as “activates murine macrophages”. The “secretion of IL-6, IL-8 or RANTES” value with MyD88- EOC cells [6] is “neither constitutive secretion nor LPS- or paclitaxel-induced”. The IL-6 secretion entry in the assay on MyD88+ R182 EOC cells (R182 cells after inhibition of MyD88 expression by RNAi) is listed as “decreased IL-6 secretion”.

Consider `N.N.O=C([O-])C1(C(=O)[O-])CCC1.[Pt+2]` [carboplatin], for which, in the assay on A2780 EOC cells (A2780 transfected with MyD88), the “sensitivity (apoptosis by caspase-3/7 activity)” value is listed as “retained its sensitivity”. In addition, the caspase-3/7 activity entry with A2780 EOC cells is on record as “significant increase”.

The values above are taken from patent publication US7985538B2, “Drug resistance and methods of reversing” (Yale University, priority 2006, dated 2011).
